From PubChem BioAssay (NCI)
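Cultured in 96-well plates, cells were exposed to test compound for 48 hours across five concentrations. GI50 marks 50% less growth. The concentration for full growth arrest is given as TGI.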

Legend:
Experiment in all cases: NCI-60 cell line screen, 48 h
[1] = system: 786-0 renal
[2] = system: A498 renal
[3] = system: A549 NSCLC
[4] = system: ACHN renal
[5] = system: BT-549 breast
[6] = system: CAKI-1 renal
[7] = system: CCRF-CEM leukemia
[8] = system: COLO 205 colon
[9] = system: DU-145 prostate
[10] = system: EKVX NSCLC
[11] = system: HCC-2998 colon
[12] = system: HCT-116 colon
[13] = system: HCT-15 colon
[14] = system: HL-60(TB) leukemia
[15] = system: HOP-62 NSCLC
[16] = system: HOP-92 NSCLC
[17] = system: HS 578T breast
[18] = system: HT29 colon
[19] = system: IGROV1 ovarian
[20] = system: K-562 leukemia
[21] = system: KM12 colon
[22] = system: LOX IMVI melanoma
[23] = system: M14 melanoma
[24] = system: MALME-3M melanoma
[25] = system: MCF7 breast
[26] = system: MDA-MB-231 breast
[27] = system: MDA-MB-435
[28] = system: MDA-MB-468 breast
[29] = system: MOLT-4 leukemia
[30] = system: NCI-H226 lung
[31] = system: NCI-H23 lung
[32] = system: NCI-H460 lung
[33] = system: NCI-H522 lung
[34] = system: OVCAR-3 ovarian
[35] = system: OVCAR-4 ovarian
[36] = system: OVCAR-5 ovarian
[37] = system: OVCAR-8 ovarian
[38] = system: PC-3 prostate
[39] = system: RPMI-8226 leukemia
[40] = system: RXF 393 renal
[41] = system: SF-268 CNS
[42] = system: SF-295 CNS
[43] = system: SF-539 CNS
[44] = system: SK-MEL-2 melanoma
[45] = system: SK-MEL-28 melanoma
[46] = system: SK-MEL-5 melanoma
[47] = system: SK-OV-3 ovarian
[48] = system: SN12C renal
[49] = system: SNB-19 CNS
[50] = system: SNB-75 CNS
[51] = system: SR leukemia
[52] = system: SW-620 colon
[53] = system: T-47D breast
[54] = system: TK-10 renal
[55] = system: U251 CNS
[56] = system: UACC-257 melanoma
[57] = system: UACC-62 melanoma
[58] = system: UO-31 renal

**Q.** For `N#Cc1c(-c2ccc(Br)cc2)nc2n[nH]c(-c3ccc(Br)cc3)c2c1-c1ccc(C(F)(F)F)cc1`, which GI50 [1] is on record?
**A.** 7.85 µM

**Q.** What about the TGI [1] of the same molecule?
**A.** 28.1 µM

**Q.** And the GI50 [2]?
**A.** 15.1 µM

**Q.** What about the TGI [2] of the same molecule?
**A.** 45.2 µM

**Q.** What about the GI50 [3] of the same molecule?
**A.** 4.62 µM

**Q.** And the TGI [3]?
**A.** > 100 µM

**Q.** What about the GI50 [4] of the same molecule?
**A.** 3.26 µM

**Q.** What about the TGI [4] of the same molecule?
**A.** 14.3 µM

**Q.** And the GI50 [5]?
**A.** 2560 nM

**Q.** What about the TGI [5] of the same molecule?
**A.** 8.18 µM

**Q.** What about the GI50 [6] of the same molecule?
**A.** 4.01 µM

**Q.** What about the TGI [6] of the same molecule?
**A.** 24.2 µM

**Q.** And the GI50 [7]?
**A.** 3.05 µM

**Q.** What about the TGI [7] of the same molecule?
**A.** 13 µM

**Q.** And the GI50 [8]?
**A.** 3.88 µM

**Q.** What about the TGI [8] of the same molecule?
**A.** 15.9 µM

**Q.** What about the GI50 [9] of the same molecule?
**A.** 5.45 µM

**Q.** What about the TGI [9] of the same molecule?
**A.** > 100 µM

**Q.** And the GI50 [10]?
**A.** 3.05 µM

**Q.** What about the TGI [10] of the same molecule?
**A.** 27.3 µM

**Q.** And the GI50 [11]?
**A.** 5.27 µM

**Q.** What about the TGI [11] of the same molecule?
**A.** 27.1 µM

**Q.** And the GI50 [12]?
**A.** 3.42 µM

**Q.** What about the TGI [12] of the same molecule?
**A.** 73.2 µM

**Q.** And the GI50 [13]?
**A.** 3.29 µM

**Q.** And the TGI [13]?
**A.** 19.1 µM

**Q.** And the GI50 [14]?
**A.** 2030 nM

**Q.** What about the TGI [14] of the same molecule?
**A.** 6.13 µM

**Q.** And the GI50 [15]?
**A.** 14.1 µM

**Q.** And the TGI [15]?
**A.** 44.7 µM

**Q.** What about the GI50 [16] of the same molecule?
**A.** 1650 nM

**Q.** And the TGI [16]?
**A.** 4.73 µM

**Q.** What about the GI50 [17] of the same molecule?
**A.** 10.2 µM

**Q.** What about the TGI [17] of the same molecule?
**A.** 49.1 µM

**Q.** And the GI50 [18]?
**A.** 3.84 µM

**Q.** And the TGI [18]?
**A.** 35.7 µM

**Q.** And the GI50 [19]?
**A.** 2710 nM

**Q.** And the TGI [19]?
**A.** 15.4 µM

**Q.** What about the GI50 [20] of the same molecule?
**A.** 2610 nM

**Q.** And the TGI [20]?
**A.** 10.3 µM

**Q.** What about the GI50 [21] of the same molecule?
**A.** 4.4 µM

**Q.** What about the TGI [21] of the same molecule?
**A.** 26.8 µM

**Q.** What about the GI50 [22] of the same molecule?
**A.** 3.45 µM

**Q.** And the TGI [22]?
**A.** > 100 µM

**Q.** And the GI50 [23]?
**A.** 5.24 µM

**Q.** What about the TGI [23] of the same molecule?
**A.** 23.7 µM

**Q.** What about the GI50 [24] of the same molecule?
**A.** 2340 nM

**Q.** What about the TGI [24] of the same molecule?
**A.** 6.47 µM

**Q.** And the GI50 [25]?
**A.** 3.13 µM

**Q.** And the TGI [25]?
**A.** 24 µM

**Q.** And the GI50 [26]?
**A.** 5.37 µM

**Q.** What about the TGI [26] of the same molecule?
**A.** 19.3 µM

**Q.** And the GI50 [27]?
**A.** 4.03 µM

**Q.** What about the TGI [27] of the same molecule?
**A.** 21.4 µM

**Q.** And the GI50 [28]?
**A.** 3.44 µM

**Q.** And the TGI [28]?
**A.** 15.5 µM

**Q.** What about the GI50 [29] of the same molecule?
**A.** 1890 nM

**Q.** And the TGI [29]?
**A.** 6.02 µM

**Q.** What about the GI50 [30] of the same molecule?
**A.** 3.07 µM

**Q.** And the TGI [30]?
**A.** 18 µM

**Q.** What about the GI50 [31] of the same molecule?
**A.** 4.31 µM

**Q.** And the TGI [31]?
**A.** > 100 µM

**Q.** And the GI50 [32]?
**A.** 3.62 µM

**Q.** And the TGI [32]?
**A.** 19.4 µM

**Q.** What about the GI50 [33] of the same molecule?
**A.** 3.78 µM

**Q.** And the TGI [33]?
**A.** 36.9 µM

**Q.** And the GI50 [34]?
**A.** 5.32 µM

**Q.** What about the TGI [34] of the same molecule?
**A.** 34.3 µM

**Q.** And the GI50 [35]?
**A.** 4.02 µM

**Q.** And the TGI [35]?
**A.** 25.6 µM

**Q.** And the GI50 [36]?
**A.** 7.58 µM

**Q.** And the TGI [36]?
**A.** 26.9 µM

**Q.** And the GI50 [37]?
**A.** 12.5 µM

**Q.** What about the TGI [37] of the same molecule?
**A.** > 100 µM

**Q.** What about the GI50 [38] of the same molecule?
**A.** 1950 nM

**Q.** What about the TGI [38] of the same molecule?
**A.** 12.4 µM

**Q.** And the GI50 [39]?
**A.** 2350 nM

**Q.** What about the TGI [39] of the same molecule?
**A.** 10.4 µM

**Q.** And the GI50 [40]?
**A.** 6.93 µM

**Q.** And the TGI [40]?
**A.** 28.4 µM

**Q.** What about the GI50 [41] of the same molecule?
**A.** 7.91 µM

**Q.** What about the TGI [41] of the same molecule?
**A.** > 100 µM

**Q.** What about the GI50 [42] of the same molecule?
**A.** 2610 nM

**Q.** And the TGI [42]?
**A.** 10.1 µM

**Q.** And the GI50 [43]?
**A.** 5.35 µM

**Q.** What about the TGI [43] of the same molecule?
**A.** 22.2 µM

**Q.** What about the GI50 [44] of the same molecule?
**A.** 10.1 µM

**Q.** And the TGI [44]?
**A.** 23.6 µM

**Q.** What about the GI50 [45] of the same molecule?
**A.** 6.79 µM

**Q.** And the TGI [45]?
**A.** 26.3 µM

**Q.** What about the GI50 [46] of the same molecule?
**A.** 3.29 µM

**Q.** And the TGI [46]?
**A.** 10.8 µM

**Q.** And the GI50 [47]?
**A.** 14.2 µM

**Q.** What about the TGI [47] of the same molecule?
**A.** 69.1 µM

**Q.** And the GI50 [48]?
**A.** 3.3 µM

**Q.** What about the TGI [48] of the same molecule?
**A.** 15.8 µM

**Q.** What about the GI50 [49] of the same molecule?
**A.** 4.53 µM

**Q.** What about the TGI [49] of the same molecule?
**A.** 33.3 µM

**Q.** What about the GI50 [50] of the same molecule?
**A.** 12.6 µM

**Q.** What about the TGI [50] of the same molecule?
**A.** 43.9 µM

**Q.** And the GI50 [51]?
**A.** 2500 nM

**Q.** What about the TGI [51] of the same molecule?
**A.** 7.71 µM

**Q.** And the GI50 [52]?
**A.** 4.39 µM

**Q.** And the TGI [52]?
**A.** > 100 µM

**Q.** And the GI50 [53]?
**A.** 3.39 µM

**Q.** What about the TGI [53] of the same molecule?
**A.** 93.9 µM

**Q.** What about the GI50 [54] of the same molecule?
**A.** 19.7 µM

**Q.** And the TGI [54]?
**A.** 58.3 µM

**Q.** What about the GI50 [55] of the same molecule?
**A.** 6.23 µM

**Q.** What about the TGI [55] of the same molecule?
**A.** 62.4 µM

**Q.** And the GI50 [56]?
**A.** 13.3 µM

**Q.** What about the TGI [56] of the same molecule?
**A.** 62.6 µM

**Q.** And the GI50 [57]?
**A.** 2610 nM

**Q.** What about the TGI [57] of the same molecule?
**A.** 13.3 µM

**Q.** And the GI50 [58]?
**A.** 2070 nM

**Q.** And the TGI [58]?
**A.** 14.9 µM
